Results reported in ChEMBL document CHEMBL1151241, “Sesquiterpenes and flavonol glycosides from Zingiber aromaticum and their CYP3A4 and CYP2D6 inhibitory activities” (J Nat Prod, 2004).

Legend:
Cytochrome P450 3A4 = Cytochrome P450 3A4 (Homo sapiens, UniProt P08684); assay: Inhibition of human CYP3A4 by radiometric assay; type: ADME
Cytochrome P450 2D6 = Cytochrome P450 2D6 (Homo sapiens, UniProt P10635); assay: Inhibition of human CYP2D6 by radiometric assay; type: ADME
Chain of Cytochrome P450 2D6 (P10635 whole entry): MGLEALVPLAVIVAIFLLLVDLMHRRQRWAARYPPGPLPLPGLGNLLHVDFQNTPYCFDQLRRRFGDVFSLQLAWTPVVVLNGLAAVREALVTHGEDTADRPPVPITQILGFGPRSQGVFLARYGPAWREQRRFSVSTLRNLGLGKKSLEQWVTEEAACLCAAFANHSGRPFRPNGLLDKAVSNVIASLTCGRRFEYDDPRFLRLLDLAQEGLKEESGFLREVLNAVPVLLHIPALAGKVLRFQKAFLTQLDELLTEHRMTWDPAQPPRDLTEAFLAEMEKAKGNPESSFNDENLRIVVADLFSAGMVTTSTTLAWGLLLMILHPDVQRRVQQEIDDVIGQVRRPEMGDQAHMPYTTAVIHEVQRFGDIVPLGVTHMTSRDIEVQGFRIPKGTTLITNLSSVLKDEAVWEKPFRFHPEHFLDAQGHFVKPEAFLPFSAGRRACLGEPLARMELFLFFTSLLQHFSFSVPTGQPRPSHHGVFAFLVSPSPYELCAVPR

Chain of Cytochrome P450 3A4 (P08684 whole entry): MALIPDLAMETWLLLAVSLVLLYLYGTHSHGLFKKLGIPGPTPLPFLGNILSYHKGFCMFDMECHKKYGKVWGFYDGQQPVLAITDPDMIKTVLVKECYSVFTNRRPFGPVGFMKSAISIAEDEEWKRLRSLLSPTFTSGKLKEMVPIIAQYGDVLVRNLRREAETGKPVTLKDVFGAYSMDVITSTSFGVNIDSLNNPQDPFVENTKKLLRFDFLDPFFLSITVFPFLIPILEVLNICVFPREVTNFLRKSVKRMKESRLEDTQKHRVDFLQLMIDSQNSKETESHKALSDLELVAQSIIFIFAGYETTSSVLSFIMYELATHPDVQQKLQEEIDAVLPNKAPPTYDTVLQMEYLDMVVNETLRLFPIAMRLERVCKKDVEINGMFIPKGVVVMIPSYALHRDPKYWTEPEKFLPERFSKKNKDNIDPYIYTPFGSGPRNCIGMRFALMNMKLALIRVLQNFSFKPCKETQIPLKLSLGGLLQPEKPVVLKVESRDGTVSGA

IC50 (Cytochrome P450 3A4) | IC50 (Cytochrome P450 2D6) | Compound
98.3 µM | > 100 µM | CC(=O)O[C@@H]1[C@@H](O)[C@H](C)O[C@@H](Oc2c(-c3ccc(O)cc3)oc3cc(O)cc(O)c3c2=O)[C@@H]1O
14.4 µM | 43.3 µM | CC(=O)O[C@@H]1[C@@H](OC(C)=O)[C@H](C)O[C@@H](Oc2c(-c3ccc(O)cc3)oc3cc(O)cc(O)c3c2=O)[C@@H]1OC(C)=O
35.5 µM | > 100 µM | C/C1=C\CC(C)(C)/C=C/C(=O)/C(C)=C/[C@H](O)C1
21.8 µM | > 100 µM | C/C1=C\CC(C)(C)/C=C/C(=O)/C(C)=C/CC1 [ZERUMBONE]
48.4 µM | > 100 µM | C/C1=C\CC[C@@]2(C)O[C@@H]2CC(C)(C)/C=C/C1=O [ZERUMBONE EPOXIDE]
36.2 µM | 4.63 µM | COc1c(-c2ccc(O)cc2)oc2cc(O)cc(O)c2c1=O [ISOKAEMPFERIDE]
42.6 µM | > 100 µM | C/C1=C\[C@H](O)C[C@]2(C)O[C@@H]2CC(C)(C)/C=C/C1=O
31.6 µM | > 100 µM | CC(=O)O[C@@H]1[C@@H](O)[C@@H](OC(C)=O)[C@H](Oc2c(-c3ccc(O)cc3)oc3cc(O)cc(O)c3c2=O)O[C@H]1C
62.5 µM | > 100 µM | C/C1=C\[C@H](O)C[C@@]2(C)O[C@@H]2CC(C)(C)/C=C/C1=O
77.7 µM | > 100 µM | CCCCC/C=C/C(=O)CCc1ccc(O)c(OC)c1 [SHOGAOL]
20.6 µM | 50.5 µM | CC(=O)O[C@@H]1[C@@H](OC(C)=O)[C@@H](O)[C@H](Oc2c(-c3ccc(O)cc3)oc3cc(O)cc(O)c3c2=O)O[C@H]1C
21.8 µM | 45.5 µM | COc1ccc(-c2oc3cc(O)cc(O)c3c(=O)c2OC)cc1 [ERMANIN]
55.8 µM | > 100 µM | CC(=O)O[C@@H]1[C@@H](O)[C@H](C)O[C@@H](Oc2c(-c3ccc(O)cc3)oc3cc(O)cc(O)c3c2=O)[C@@H]1OC(C)=O
59 µM | > 100 µM | CC(=O)O[C@H]1[C@H](Oc2c(-c3ccc(O)cc3)oc3cc(O)cc(O)c3c2=O)O[C@@H](C)[C@H](O)[C@H]1O
